Experimental data taken from patent publication US10047081B2, “BACE1 inhibitors” (Hoffmann-La Roche Inc., priority 2015, dated 2018).

What follows are molecules tested against T1, BACE1 (Homo sapiens, UniProt P56817) (assay: Cellular Aβ-lowering assay (Abeta 40 AlphaLISA, HEK293 APP cells)). Conditions: 18-20 hrs incubation, Aβ 40 in culture supernatant, read-out: BACE1 cell act. Aβ40 IC50.
T1 construct: endogenous in cells; host or cells: HEK293 APP cells
T1 sequence (P56817 46-501): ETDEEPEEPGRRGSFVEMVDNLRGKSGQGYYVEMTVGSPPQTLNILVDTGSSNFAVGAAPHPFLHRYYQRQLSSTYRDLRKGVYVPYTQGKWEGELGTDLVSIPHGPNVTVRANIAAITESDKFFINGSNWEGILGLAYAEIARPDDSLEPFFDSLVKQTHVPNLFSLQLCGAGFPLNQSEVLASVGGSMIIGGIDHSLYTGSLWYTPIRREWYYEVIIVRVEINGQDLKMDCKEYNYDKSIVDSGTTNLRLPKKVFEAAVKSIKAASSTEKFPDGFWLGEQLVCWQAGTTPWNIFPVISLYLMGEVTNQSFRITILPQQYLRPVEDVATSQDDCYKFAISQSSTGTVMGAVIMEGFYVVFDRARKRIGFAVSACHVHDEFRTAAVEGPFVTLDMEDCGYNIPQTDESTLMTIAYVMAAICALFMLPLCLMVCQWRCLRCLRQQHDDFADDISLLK
Type: cell-based
Protocol: Cellular Aβ-Lowering Assay:
The Abeta 40 AlphaLISA Assay can be used. The HEK293 APP cells were seeded in 96 well Microtiter plates in cell culture medium (Iscove's, plus 10% (v/v) fetal bovine serum, penicillin/streptomycin) to about 80% confluency and the compounds were added at a 3× concentration in ⅓ volume of culture medium (final DMSO concentration was kept at 1% v/v). After 18-20 hrs incubation at 37° C. and 5% CO2 in a humidified incubator, the culture supernatants were harvested for the determination of Aβ 40 concentrations using Perkin-Elmer Human Amyloid beta 1-40 (high specificity) Kit (Cat#AL275C).
In a Perkin-Elmer White Optiplate-384 (Cat#6007290), 2 ul culture supernatants were combined with 2 μl of a 10× AlphaLISA Anti-hAβAcceptor beads + Biotinylated Antibody Anti-Aβ 1-40 Mix (50 μg/mL/5 nM). After 1 hour room temperature incubation, 16 μl of a 1.25× preparation of Streptavidin (SA) Donor beads (25 μg/mL) were added and incubated for 30 minutes in the Dark. Light Emission at 615 nm was then recorded using EnVision-Alpha Reader. Levels of Aβ 40 in the culture supernatants were calculated as percentage of maximum signal (cells treated with 1% DMSO without inhibitor). The IC50 values were calculated using the Excel XLfit software.
With `CN=[S@@]1(=O)C[C@@](C)(c2cc(-c3cn(-c4ccc(C#N)cn4)nn3)ccc2F)N=C(N)C1(C)C` [Example 10, 6-(4-(3-((1R,3R)-5-amino-3,6,6-trimethyl-1-(methylimino)-1-oxido-3,6-dihydro-2H-1,4-thiazin-3-yl)-4-fluorophenyl)-1H-1,2,3-triazol-1-yl)nicotinonitrile 2,2,2-trifluoroacetate] the IC50 was 20 nM. For `CN=[S@@]1(=O)C[C@@](C)(c2cc(-c3cc(-c4cnc(OC)cn4)no3)ccc2F)N=C(N)C12CCCC2` [Example 27, (6R,8R)-10-amino-8-(2-fluoro-5-(3-(5-methoxypyrazin-2-yl)isoxazol-5-yl)phenyl)-8-methyl-6-(methylimino)-6-thia-9-azaspiro[4.5]dec-9-ene 6-oxide 2,2,2-trifluoroacetate], the IC50 was 139 nM. `CN=[S@@]1(=O)C[C@@](C)(c2cc(-c3cc(-c4cnc(OCC(F)(F)F)cn4)no3)ccc2F)N=C(N)C1(C)C` [Example 21, (1R,3R)-5-amino-3-(2-fluoro-5-(3-(5-(2,2,2-trifluoroethoxy)pyrazin-2-yl)isoxazol-5-yl)phenyl)-3,6,6-trimethyl-1-(methylimino)-3,6-dihydro-2H-1,4-thiazine 1-oxide 2,2,2-trifluoroacetate] was tested, and the IC50 was 9 nM. With `[2H]C([2H])([2H])N=[S@@]1(=O)C[C@@](C)(c2cc(-c3cc(-c4ncc(CC)cn4)no3)ccc2F)N=C(N)C1(C)C` [Example 26, (1R,3R)-3-[5-[3-(5-ethylpyrimidin-2-yl)isoxazol-5-yl]-2-fluoro-phenyl]-3,6,6-trimethyl-1-oxo-1-(trideuteriomethylimino)-2H-1,4-thiazin-5-amine 2,2,2-trifluoroacetate] the IC50 was 37 nM. Work on `CN=[S@]1(=O)C[C@@](CF)(c2cc(-c3cc(-c4cnc(OC)cn4)no3)ccc2F)N=C(N)C1(C)C` [Example 2, (1S,3S)-5-amino-3-(2-fluoro-5-(3-(5-methoxypyrazin-2-yl)isoxazol-5-yl)phenyl)-3-(fluoromethyl)-6,6-dimethyl-1-(methylimino)-3,6-dihydro-2H-1,4-thiazine 1-oxide 2,2,2-trifluoroacetate] yielded an IC50 of 141 nM. Molecule `COc1cnc(-c2cc(-c3ccc(F)c([C@]4(C)C[S@@](=O)(=NCC(F)(F)F)C(C)(C)C(N)=N4)c3)on2)cn1` [Example 37, (1S,3R)-5-amino-3-(2-fluoro-5-(3-(5-methoxypyrazin-2-yl)isoxazol-5-yl)phenyl)-3,6,6-trimethyl-1-((2,2,2-trifluoroethyl)imino)-3,6-dihydro-2H-1,4-thiazine 1-oxide 2,2,2-trifluoroacetate] has an IC50 of 6 nM. `CN=[S@@]1(=O)C[C@@](C)(c2cc(-c3cc(-c4ncc(OC)cn4)no3)ccc2F)N=C(N)C1(C)C` [Example 20, (1R,3R)-5-amino-3-(2-fluoro-5-(3-(5-methoxypyrimidin-2-yl)isoxazol-5-yl)phenyl)-3,6,6-trimethyl-1-(methylimino)-3,6-dihydro-2H-1,4-thiazine 1-oxide] gave an IC50 of 3 nM. For `CN=[S@@]1(=O)C[C@@](C)(c2cc(-c3cc(-c4ncc(OCC(F)F)cn4)no3)ccc2F)N=C(N)C1(C)C` [Example 18, (1R,3R)-3-[5-[3-[5-(2,2-difluoroethoxy)pyrimidin-2-yl]isoxazol-5-yl]-2-fluoro-phenyl]-3,6,6-trimethyl-1-methylimino-1-oxo-2H-1,4-thiazin-5-amine], the IC50 was 13 nM. Molecule `CN=[S@@]1(=O)C[C@@](CF)(c2cc(-c3cc(-c4ncc(Br)cc4C)no3)ccc2F)N=C(N)C1(C)C` [Example 15, (1R,3S)-5-amino-3-(5-(3-(5-bromo-3-methylpyridin-2-yl)isoxazol-5-yl)-2-fluorophenyl)-3-(fluoromethyl)-6,6-dimethyl-1-(methylimino)-3,6-dihydro-2H-1,4-thiazine 1-oxide 2,2,2-trifluoroacetate] has an IC50 of 344 nM.
